# Reference: patent publication US4740501A (priority 1985, dated 1988)
# Columns and labels:
# [1] = system: B-16 melanoma cell layers; assay: Tumor cell survival (trypan blue), continuous exposure; format: cell-based, Mouse
# AMML = assay: Survival of fresh human leukemic cells, continuous exposure; format: cell-based
# L-1210 leukemia = assay: In vivo therapy of mice inoculated intraperitoneally with L-1210 leukemia; parameters: species or system DBA/2 mice
# spontaneous leukemia = assay: Treatment of spontaneous leukemia in AKR mice; format: in vivo
# Source text: Leukemia in AKR mice, which is the result of the oncogenic activity of the endogenous Gross leukemia virus, has been effectively used as a model for human leukemias in the studies of tumor biology, chemotherapy, and chemoimmunotherapy. There is considerable evidence that leukemia in the AKR mice mimics human leukemias in many respects, and it is probable that AKR leukemia is analogous to human acute T-cell lymphocytic leukemia. Leukemic cells first appear in the thymus of mice at 6 to 12 months of age. Controlling this disease is formidable, since the cure or long range control of spontaneous leukemia in AKR mice require the therapeutic eradication of virtually all of the oncogenic cells. The time lapse between the first appearance of viable lymphoma cells in the thymus and the clinical diagnosis is about 30 days.
# The effectiveness of the tripeptide compound in the treatment of spontaneous leukemia in AKR mice was tested. The clinical diagnosis of spontaneous leukemia in AKR mice was made with 95% accuracy by splenic and lymph node palpation, followed by leukocyte count. There is good evidence that at the time of clinical diagnosis there are 0.6-1.8×10^9 widely disseminated lymphoma cells in AKR mice. Without cytoreductive therapy, AKR mice die after diagnosis of spontaneous leukemia at the rate of 50% by 14 days, 90% by 33 days, and 96% by 56 days. […] Reduction of thymus and spleen weights to normal is indicative of eradication of the primary tumor. Leukemic AKR mice receiving either treatment sustained a mean survival time of 200% and 100%, respectively. It is also important and significant that the tripeptide compound treatment provides good sustainment since 30% of the treated animals in either group were alive after the onset on the therapy (FIG. 6).
# L1210/L-PAM leukemia = assay: cells; format: cell-based, mice
# [2] = single dose 10, 15, and 20 mg/kg 48 hours after inoculation
smiles,measurement,setting,value
"CCOC(=O)[C@H](CCSC)NC(=O)[C@H](Cc1cccc(N(CCCl)CCCl)c1)NC(=O)[C@@H](N)Cc1ccc(F)cc1.Cl [PTT.119, 3-(p-fluorophenyl)-L-alanyl-3-[m-bis(2-chloroethyl)aminophenyl]-L-alanyl-L-methionine ethyl ester hydrochloride]",% tumor cell survival,"[1]; 5 ug/ml, 1 hr",100%
same,% tumor cell survival,"[1]; 5 ug/ml, 4 hr",100%
same,% tumor cell survival,"[1]; 5 ug/ml, 8 hr",100%
same,% tumor cell survival,"[1]; 5 ug/ml, 24 hr",74%
same,% tumor cell survival,"[1]; 10 ug/ml, 1 hr",100%
same,% tumor cell survival,"[1]; 10 ug/ml, 4 hr",100%
same,% tumor cell survival,"[1]; 10 ug/ml, 8 hr",63%
same,% tumor cell survival,"[1]; 10 ug/ml, 24 hr",64%
same,% tumor cell survival,"[1]; 25 ug/ml, 1 hr",100%
same,% tumor cell survival,"[1]; 25 ug/ml, 4 hr",100%
same,% tumor cell survival,"[1]; 25 ug/ml, 8 hr",92%
same,% tumor cell survival,"[1]; 25 ug/ml, 24 hr",60%
same,% tumor cell survival,"[1]; 50 ug/ml, 1 hr",100%
same,% tumor cell survival,"[1]; 50 ug/ml, 4 hr",100%
same,% tumor cell survival,"[1]; 50 ug/ml, 8 hr",58%
same,% tumor cell survival,"[1]; 50 ug/ml, 24 hr",33%
same,% tumor cell survival,"AMML; 1 ug/ml, 1 hr",95%
same,% tumor cell survival,"AMML; 1 ug/ml, 4 hr",85%
same,% tumor cell survival,"AMML; 1 ug/ml, 24 hr",66%
same,% tumor cell survival,"AMML; 5 ug/ml, 1 hr",50%
same,% tumor cell survival,"AMML; 5 ug/ml, 4 hr",52%
same,% tumor cell survival,"AMML; 5 ug/ml, 24 hr",6%
same,% tumor cell survival,"AMML; 10 ug/ml, 1 hr",60%
same,% tumor cell survival,"AMML; 10 ug/ml, 4 hr",41%
same,% tumor cell survival,"AMML; 10 ug/ml, 24 hr",21%
same,% tumor cell survival,"AMML; 25 ug/ml, 1 hr",20%
same,% tumor cell survival,"AMML; 25 ug/ml, 4 hr",15%
same,% tumor cell survival,"AMML; 25 ug/ml, 24 hr",14%
same,% tumor cell survival,"AMML; 50 ug/ml, 1 hr",4%
same,% tumor cell survival,"AMML; 50 ug/ml, 4 hr",3%
same,% tumor cell survival,"AMML; 50 ug/ml, 24 hr",4%
same,mean survival time,"L-1210 leukemia; single dose 10, 15, and 20 mg/kg 48 hours after 10^6 L-1210 cells i.p., from 8 days",30 days
same,"apparent cure, share of treated animals",L-1210 leukemia; [2],30%
same,increase of the mean survival time,L-1210 leukemia; [2],275%
same,mean survival time,"spontaneous leukemia; 5 mg per kg on days 1, 4, 7, 21, and 42",100%
same,mean survival time,spontaneous leukemia; 10 mg per kg on days 1 and 14,200%
same,leukemic thymus and spleen weights,"spontaneous leukemia; after chemotherapy, either regimen",Significant reductions
same,treated animals alive after the onset of therapy,spontaneous leukemia; either treatment group,30%
same,T.C.D.100,L1210/L-PAM leukemia,30.0
same,surviving fraction at end of examination period,L1210/L-PAM leukemia,0.8-3%
same,percentage of viable cells,L1210/L-PAM leukemia; 3.75 µM,40-50%
same,IC50,"L1210/L-PAM leukemia; Mus musculus, L1210/LPAM, 24 h, read-out: T.C.D.50",3000 nM
